Measurements taken from ChEMBL document CHEMBL4431305, “Chermesins A-D: Meroterpenoids with a Drimane-Type Spirosesquiterpene Skeleton from the Marine Algal-Derived Endophytic Fungus Penicillium chermesinum EN-480” (J Nat Prod, 2016).
In brackets after ≈: the same amount, converted by molar mass. Activity calls are given as the source filed them. The calls are words filed in the database; no cut-off is given here.

Assays:
Candida albicans = experiment: Antimicrobial activity against Candida albicans by microplate assay; format: functional
Escherichia coli = experiment: Antimicrobial activity against Escherichia coli by microplate assay; format: functional
Micrococcus luteus = experiment: Antimicrobial activity against Micrococcus luteus by microplate assay; format: functional
Vibrio alginolyticus = experiment: Antimicrobial activity against Vibrio alginolyticus by microplate assay; format: functional
[1] = Toxicity in Artemia salina assessed as lethality at 100 ug/ml measured after 6 to 24 hrs; format: organism-based; details: in vivo

For `C[C@@H]1[C@H](O)[C@@H](C)/C=C/C=C/C=C/C=C/C=C/C=C/C=C/[C@H](O[C@@H]2O[C@H](C)[C@@H](O)[C@H](N)[C@@H]2O)C[C@@H]2O[C@](O)(C[C@@H](O)C[C@@H](O)[C@H](O)CC[C@@H](O)C[C@@H](O)CC(=O)O[C@H]1C)C[C@H](O)[C@H]2C(=O)O` [AMPHOTERICIN B], the MIC (Candida albicans) was 2 µg/mL (≈ 2.16 µM).

For `CC1=CC(=O)C(C)=C2O[C@@]3(C[C@]12C)[C@@H](C)CC[C@H]1C(C)(C)[C@@H](O)CC[C@@]13C`, the MIC (Candida albicans) was 32 µg/mL (≈ 85.9 µM), the MIC (Escherichia coli) was 32 µg/mL (≈ 85.9 µM) and the MIC (Micrococcus luteus) was 8 µg/mL (≈ 21.5 µM). For the same compound, the MIC (Vibrio alginolyticus) was 32 µg/mL (≈ 85.9 µM) and the mortality at 100 ug/ml [1] was < 60%.

For `CC1=C2O[C@@]3(C[C@]2(C)C(C)=C(C(=O)O)C1=O)[C@@H](C)CC[C@H]1C(C)(C)C(=O)CC[C@@]13C`, the MIC (Candida albicans) was “inactive”, the MIC (Escherichia coli) was 64 µg/mL (≈ 154 µM) and the MIC (Micrococcus luteus) was “inactive”. The MIC (Vibrio alginolyticus) was “inactive” and the mortality at 100 ug/ml [1] was < 60%.

For `COC(=O)[C@@H]1C(=O)C(C)=C2O[C@@]3(C[C@]2(C)[C@H]1C)[C@@H](C)[C@@H](O)C[C@H]1C(C)(C)[C@@H](O)CC[C@@]13C`, the MIC (Candida albicans) was “inactive”, the MIC (Escherichia coli) was “inactive” and the MIC (Micrococcus luteus) was “inactive”. For the same compound, the MIC (Vibrio alginolyticus) was “inactive” and the mortality at 100 ug/ml [1] was < 60%.

`CC1=CC(=O)C(C)=C2O[C@@]3(C[C@]12C)[C@@H](C)CC[C@H]1C(C)(C)C(=O)CC[C@@]13C` showed an MIC (Candida albicans) of 64 µg/mL (≈ 173 µM), an MIC (Escherichia coli) of 64 µg/mL (≈ 173 µM) and an MIC (Micrococcus luteus) of 8 µg/mL (≈ 21.6 µM). For the same compound, the MIC (Vibrio alginolyticus) was 64 µg/mL (≈ 173 µM) and the mortality at 100 ug/ml [1] was < 60%.

Work on `O=C(N[C@H](CO)[C@H](O)c1ccc([N+](=O)[O-])cc1)C(Cl)Cl` [CHLORAMPHENICOL] yielded an MIC (Escherichia coli) of 2 µg/mL (≈ 6.19 µM), an MIC (Micrococcus luteus) of 2 µg/mL (≈ 6.19 µM) and an MIC (Vibrio alginolyticus) of 4 µg/mL (≈ 12.4 µM).
